Data reported in patent US12390483B2, “Compounds and methods for treating neurological and cardiovascular conditions” (Astrocyte Pharmaceuticals, Inc., priority 2016, dated 2025).
Read-outs that look alike come from different tables or passages of the source.

Assays:
[1] = Pharmacokinetics of MRS4322 following intravenous administration to neonatal pigs; type: in vivo; details: 0.2 mg/kg IV; for C0: 0.2 mg/kg, neonatal pig plasma, individual animals
Description: Animals. Four-week old female neonatal pigs weighing approximately 7.5 Kg were used for this study, supplied by the Department of Bioengineering, University of Pennsylvania (Philadelphia, PA). Animals were equipped with brain microdialysis probes to obtain brain extracellular fluid samples for drug concentration determinations during the study. All studies were conducted under approved University of Pennsylvania IACUC protocols.
Drug Administration: MRS4322 was solubilized in DMSO and then diluted in saline to prepare dosing solution. A 10 mL volume of dosing solution was administered by intravenous bolus administration to each neonatal pig (n=3).
Tissue Sampling: Blood samples were obtained at 0.25, 0.5, 1, 2, 4 and 6 hours post-dose. Brain extracellular fluid samples were obtained from implanted microdialysis probes at 1, 4 and 6 hours post-dose. Whole blood (1 mL) was obtained at each timepoint and placed in vacutainer tubes containing heparin and immediately centrifuged for preparation of plasma; plasma was stored at −80° C. Brain extracellular and cerebrospinal fluid samples were stored at −80° C. At the time of euthanasia (6 hours post-dose), cerebrospinal fluid samples were obtained and frozen, while brain samples from the cortex and hippocampus were obtained by decapitation, rinsed in ice-cold phosphate-buffered saline and weighed. Brain samples were then immediately flash-frozen in liquid nitrogen and stored at −80° C.
(§1) The following table outlines the LC and MS/MS conditions employed:
The calibration ranges for all of the MRS4322 matrice's standard curves were 0.1-1000 ng/mL.
For bioanalysis of brain concentrations of MRS4322, brain samples were homogenized in ice-cold phosphate-buffered saline in a 4× dilution. Aliquots of the resulting diluted brain homogenate were treated with acetonitrile and analyzed by LC-MS/MS.

[2] = Pharmacokinetics of MRS4322 following intraperitoneal administration to mice (plasma and brain concentrations); type: in vivo; details: MRS4322 […] i.p.; for Plasma Concentration Mean / Plasma Concentration by Subject: BLQ = below 2.40 ng/mL; for Brain Concentration Mean / Brain Concentration by Subject: BLQ = below 9.64 ng/g; for Plasma Concentration by Subject / Brain Concentration by Subject: subjects A-C
Description: Animals: Female C576BL/6J mice weighing approximately 0.02 kg were used for this study, supplied by the University of Texas Health Sciences Center (San Antonio, TX). All studies were conducted under approved University of Texas Health Sciences Center IACUC protocols.
Drug Administration: MRS4322 was solubilized in DMSO and then diluted in saline to prepare dosing solution. Final dosing solution concentration of MRS4322 was 100 μM. A 100 μL volume of dosing solution was administered intraperitoneally to each mouse per 20 gram body weight; MRS4322 was administered intraperitoneally at 0.16 mg/kg or 0.5 μmol/kg. Three mice were administered MRS4322 for each sampling timepoint.
Tissue Sampling: Blood and brain samples were obtained at 0, 0.083, 0.25, 0.5, 1, 2 and 8 hours post-dose. At each timepoint, mice (3/timepoint) were euthanized in a […] chamber. Whole blood was obtained by cardiac puncture into Microtainer tubes containing heparin and immediately centrifuged for preparation of plasma; plasma was stored at −80° C. At each timepoint, whole brain samples were obtained by decapitation, rinsed in ice-cold phosphate-buffered saline and weighed. Brain samples were then immediately flash-frozen in liquid nitrogen and stored at −80° C.
as §1
The calibration range for the MRS4322 plasma concentration standard curve was 2.42-242 ng/mL. The calibration range for MRS4322 brain concentrations was 2.41-233 ng/mL.
For bioanalysis of brain concentrations of MRS4322, brain samples were homogenized in ice-cold phosphate-buffered saline in a 4× dilution. Aliquots of the resulting diluted brain homogenate were treated with acetonitrile and analyzed by LC-MS/MS. Because of the 4× homogenate dilution, the calibration range of the MRS4322 brain standard curve was translated to 9.64-932 ng/gm. In several samples, MRS4322 was detectable but fell below the brain LLOQ of 9.64 ng/gm but were above background; in these cases the final reported brain concentration was extrapolated based on MS peak heights.

Structure (SMILES): CSc1nc(N)c2ncn([C@H]3[C@H](O)[C@H](O)[C@]4(CO)C[C@H]34)c2n1 [MRS4322]
- C0 ([1]; female, pig, plasma, iv, read-out: C0): 0.266 µg/mL
- C0 [1]: 0.269 µg/mL
- Plasma Concentration by Subject ([1]; neonatal pigs, 0 h, individual subjects, BLQ = below 0.0975 ng/mL): BLQ
- Plasma Concentration Mean ([1]; neonatal pigs, 0 h, BLQ = below 0.0975 ng/mL): BLQ
- Plasma Concentration Mean ([2]; 0 h): BLQ
- Brain Concentration Mean ([2]; 0 h): BLQ
- Plasma Concentration by Subject ([2]; 0 h): BLQ
- Brain Concentration by Subject ([2]; 0 h): BLQ
- Brain Concentration Mean ([2]; 1 h): BLQ
- Brain Concentration by Subject ([2]; 1 h): BLQ
- Brain Concentration Mean ([2]; 2 h): BLQ
- Brain Concentration by Subject ([2]; 2 h): BLQ
- Plasma Concentration Mean ([2]; 8 h): BLQ
- Brain Concentration Mean ([2]; 8 h): BLQ
- Plasma Concentration by Subject ([2]; 8 h): BLQ
- Brain Concentration by Subject ([2]; 8 h): BLQ
